Reference: ChEMBL document CHEMBL1145743, “High-throughput synthesis and optimization of thrombin inhibitors via urazole alpha-addition and Michael addition” (Bioorg Med Chem Lett, 2003)
Calls of active or inactive are those of the source. The rule behind the calls is not given here.

Columns and labels:
[1] = target: T1, Prothrombin (Homo sapiens, UniProt P00734); assay: Inhibitory activity against human thrombin
[2] = target: T1, Prothrombin; conditions: at 400 nM
Description: Inhibitory activity against thrombin at 400 nM; NA=not active

[3] = target: T1, Prothrombin; assay: Inhibitory activity against thrombin; NA=not active
[4] = target: T1, Prothrombin; assay: Inhibitory activity against thrombin at concentration 400 nM; NA: Not active

SMILES | Ki [1] | also measured
Cc1nc(N)ccc1CNC(=O)C1C=CCn2c(=O)n(C(CSc3ccc(Br)cc3)C(=O)OC3CCCCC3)c(=O)n21 (configuration not stated) | 1.5 nM | 
N[C@H]1CC[C@H](CNC(=O)C2C=CCn3c(=O)n(C(CSC4CCCCC4)C(=O)O)c(=O)n32)CC1 (some centres not stated) | 53 nM | 
COC(=O)C(CSc1ccccc1)n1c(=O)n2n(c1=O)C(C(=O)NCc1ccc(N)nc1C)C=CC2 (configuration not stated) | 32 nM | 
N[C@H]1CC[C@H](CNC(=O)C2C=CCn3c(=O)n(C(CNC4CCCCC4)C(=O)O)c(=O)n32)CC1 (some centres not stated) |  | inhibition [2]: inactive
Cc1nc(N)ccc1CNC(=O)C1C=CCn2c(=O)n(C(CSc3ccccc3)C(=O)O)c(=O)n21 (configuration not stated) | 15 nM | 
COC(=O)C(CSc1ccc(Cl)c(Cl)c1)n1c(=O)n2n(c1=O)C(C(=O)NC[C@H]1CC[C@H](N)CC1)C=CC2 (some centres not stated) | 0.24 nM | 
Cc1nc(N)ccc1CNC(=O)C1C=CCn2c(=O)n(C(CSc3ccc(Br)cc3)C(=O)O)c(=O)n21 (configuration not stated) |  | Ki [3]: Not Active; inhibition [2]: inactive
COC(=O)C(CSCC(O)CO)n1c(=O)n2n(c1=O)C(C(=O)NCc1ccc(N)nc1C)C=CC2 (configuration not stated) |  | inhibition [2]: inactive
Cc1nc(N)ccc1CNC(=O)C1C=CCn2c(=O)n(C(CSc3ccc(Cl)cc3)C(=O)OC3CCCCC3)c(=O)n21 (configuration not stated) | 0.057 nM | 
COc1ccc(SCC(C(=O)O)n2c(=O)n3n(c2=O)C(C(=O)NCc2ccc(N)nc2C)C=CC3)cc1 (configuration not stated) | 29 nM | 
CCCSCC(C(=O)O)n1c(=O)n2n(c1=O)C(C(=O)NC[C@H]1CC[C@H](N)CC1)C=CC2 (some centres not stated) |  | inhibition [4]: inactive
CCOC(=O)C(CSc1ccc(Cl)cc1)n1c(=O)n2n(c1=O)C(C(=O)NCc1ccc(N)nc1C)C=CC2 (configuration not stated) |  | Ki [3]: Not Active
Cc1nc(N)ccc1CNC(=O)C1C=CCn2c(=O)n(C(CSc3ccc(Cl)c(Cl)c3)C(=O)OC(C)C)c(=O)n21 (configuration not stated) | 53 nM | 
COC(=O)C(CSc1ccccc1)n1c(=O)n2n(c1=O)C(C(=O)NC[C@H]1CC[C@H](N)CC1)C=CC2 (some centres not stated) | 2.9 nM | 
Cc1nc(N)ccc1CNC(=O)C1C=CCn2c(=O)n(C(CSc3ccc(Cl)c(Cl)c3)C(=O)N3CCCC3)c(=O)n21 (configuration not stated) | 18 nM | 
COC(=O)C(CSc1ccc(C)cc1C)n1c(=O)n2n(c1=O)C(C(=O)NCc1ccc(N)nc1C)C=CC2 (configuration not stated) |  | inhibition [2]: inactive
COC(=O)C(CSc1ccc(OC)cc1)n1c(=O)n2n(c1=O)C(C(=O)NC[C@H]1CC[C@H](N)CC1)C=CC2 (some centres not stated) | 0.75 nM | 
N[C@H]1CC[C@H](CNC(=O)C2C=CCn3c(=O)n(C(CSc4ccc(Cl)c(Cl)c4)C(=O)O)c(=O)n32)CC1 (some centres not stated) | 13 nM | 
COC(=O)C(CSc1ccc(Br)cc1)n1c(=O)n2n(c1=O)C(C(=O)NC[C@H]1CC[C@H](N)CC1)C=CC2 (some centres not stated) | 0.023 nM | inhibition [2]: inactive
Cc1nc(N)ccc1CNC(=O)C1C=CCn2c(=O)n(C(CSc3ccc(Cl)c(Cl)c3)C(=O)O)c(=O)n21 (configuration not stated) | 22 nM | 
COC(=O)C(CNCC(C)C)n1c(=O)n2n(c1=O)C(C(=O)NCc1ccc(N)nc1C)C=CC2 (configuration not stated) |  | inhibition [2]: inactive
Cc1nc(N)ccc1CNC(=O)C1C=CCn2c(=O)n(C(CSc3ccc(Cl)cc3)C(=O)N3CCOCC3)c(=O)n21 (configuration not stated) | 7.7 nM | 
COC(=O)C(CSc1ccc(Br)cc1)n1c(=O)n2n(c1=O)C(C(=O)NCc1ccc(N)nc1C)C=CC2 (configuration not stated) | 83 nM | 
Cc1nc(N)ccc1CNC(=O)C1C=CCn2c(=O)n(C(CSc3ccc(Br)cc3)C(=O)OC(C)C)c(=O)n21 (configuration not stated) | 0.087 nM | 
Cc1nc(N)ccc1CNC(=O)C1C=CCn2c(=O)n(C(CSc3ccc(Br)cc3)C(=O)N3CCOCC3)c(=O)n21 (configuration not stated) | 39 nM | 

SMILES | Ki [1] | also measured
CCCSCC(C(=O)O)n1c(=O)n2n(c1=O)C(C(=O)NCc1ccc(N)nc1C)C=CC2 (configuration not stated) |  | inhibition [2]: inactive
COC(=O)C(CSc1ccc(Cl)cc1)n1c(=O)n2n(c1=O)C(C(=O)NCc1ccc(N)nc1C)C=CC2 (configuration not stated) | 82 nM | 
Cc1nc(N)ccc1CNC(=O)C1C=CCn2c(=O)n(C(CSC3CCCCC3)C(=O)O)c(=O)n21 (configuration not stated) | 11 nM | 
CC(=O)Nc1ccc(SCC(C(=O)O)n2c(=O)n3n(c2=O)C(C(=O)NC[C@H]2CC[C@H](N)CC2)C=CC3)cc1 (some centres not stated) |  | inhibition [2]: inactive
N[C@H]1CC[C@H](CNC(=O)C2C=CCn3c(=O)n(C(CSc4ccc(Br)cc4)C(=O)O)c(=O)n32)CC1 (some centres not stated) | 2.6 nM | 
N[C@H]1CC[C@H](CNC(=O)C2C=CCn3c(=O)n(C(CSc4ccccc4)C(=O)O)c(=O)n32)CC1 (some centres not stated) | 36 nM | 
Cc1nc(N)ccc1CNC(=O)C1C=CCn2c(=O)n(C(CSc3ccc(Cl)cc3)C(=O)O)c(=O)n21 (configuration not stated) | 32 nM | 
N[C@H]1CC[C@H](CNC(=O)C2C=CCn3c(=O)n(C(CSc4ccc(Cl)cc4)C(=O)O)c(=O)n32)CC1 (some centres not stated) | 5.7 nM | 
COC(=O)C(CNC1CCCCC1)n1c(=O)n2n(c1=O)C(C(=O)NCc1ccc(N)nc1C)C=CC2 (configuration not stated) |  | inhibition [2]: inactive
CCOC(=O)C(CSc1ccc(Cl)c(Cl)c1)n1c(=O)n2n(c1=O)C(C(=O)NCc1ccc(N)nc1C)C=CC2 (configuration not stated) | 28 nM | 
COC(=O)C(CSc1ccc(OC)cc1)n1c(=O)n2n(c1=O)C(C(=O)NCc1ccc(N)nc1C)C=CC2 (configuration not stated) | 80 nM | 
CCOC(=O)C(CSc1ccc(Br)cc1)n1c(=O)n2n(c1=O)C(C(=O)NCc1ccc(N)nc1C)C=CC2 (configuration not stated) | 0.27 nM | 
COC(=O)C(CSC1CCCCC1)n1c(=O)n2n(c1=O)C(C(=O)NC[C@H]1CC[C@H](N)CC1)C=CC2 (some centres not stated) | 91 nM | 
COC(=O)C(CSc1ccc(Cl)c(Cl)c1)n1c(=O)n2n(c1=O)C(C(=O)NCc1ccc(N)nc1C)C=CC2 (configuration not stated) | 78 nM | 
Cc1nc(N)ccc1CNC(=O)C1C=CCn2c(=O)n(C(CSc3ccc(Cl)c(Cl)c3)C(=O)OC3CCCCC3)c(=O)n21 (configuration not stated) | 87 nM | 
COc1ccc(SCC(C(=O)O)n2c(=O)n3n(c2=O)C(C(=O)NC[C@H]2CC[C@H](N)CC2)C=CC3)cc1 (some centres not stated) | 4.7 nM | 
Cc1nc(N)ccc1CNC(=O)C1C=CCn2c(=O)n(C(CSc3ccc(Cl)cc3)C(=O)N3CCCC3)c(=O)n21 (configuration not stated) | 24 nM | 
Cc1nc(N)ccc1CNC(=O)C1C=CCn2c(=O)n(C(CSc3ccc(Cl)cc3)C(=O)OC(C)C)c(=O)n21 (configuration not stated) | 1.5 nM | 
Cc1nc(N)ccc1CNC(=O)C1C=CCn2c(=O)n(C(CSCC(C)C)C(=O)O)c(=O)n21 (configuration not stated) |  | inhibition [2]: inactive
COC(=O)C(CSc1ccc(Cl)cc1)n1c(=O)n2n(c1=O)C(C(=O)NC[C@H]1CC[C@H](N)CC1)C=CC2 (some centres not stated) | 0.32 nM | 
Cc1nc(N)ccc1CNC(=O)C1C=CCn2c(=O)n(C(CNCc3ccccc3)C(=O)O)c(=O)n21 (configuration not stated) |  | inhibition [2]: inactive
Cc1nc(N)ccc1CNC(=O)C1C=CCn2c(=O)n(C(CSc3ccc(Br)cc3)C(=O)N3CCCC3)c(=O)n21 (configuration not stated) | 30 nM | 
COC(=O)C(CSC1CCCCC1)n1c(=O)n2n(c1=O)C(C(=O)NCc1ccc(N)nc1C)C=CC2 (configuration not stated) | 28 nM | 
Cc1nc(N)ccc1CNC(=O)C1C=CCn2c(=O)n(C(CNCC(C)C)C(=O)O)c(=O)n21 (configuration not stated) |  | inhibition [2]: inactive
Cc1nc(N)ccc1CNC(=O)C1C=CCn2c(=O)n(C(CSc3ccc(Cl)c(Cl)c3)C(=O)N3CCOCC3)c(=O)n21 (configuration not stated) |  | Ki [3]: Not Active
